This is an account of results in patent publication US20260001928A1 (CORTERIA PHARMACEUTICALS, priority 2022, published 2026).

As usually defined, the EC50 is the concentration giving half of the maximal effect. A low value points to higher potency in that assay.

Structures are written as SMILES. *1 amine or outer side, *2 acyl side, *3 side chain or, on linkers, in order; H or OH if unused. Where a SMILES comes first, the peptide text is derived from it. Side-chain parts run from the residue outwards. [ ]: non-standard residue; d: D form. The star is where a group is joined. C16 diacid = O=C(O)CCCCCCCCCCCCCCC(=O)*; γGlu = O=C(O)[C@H](CCC(=O)[*:2])N[*:1]; NMeI = CC[C@H](C)[C@H](NC)C(=O)O; Isovaleryl = CC(C)CC(=O)*; Pentanoyl = CCCCC(=O)*; Propionyl = CCC(=O)*; Butyryl = CCCC(=O)*

Experiment [1] addresses T1, human CRF2a receptor (Homo sapiens, UniProt Q13324).
T1 construct: expressed in transfected cells; host or cells: TeloHEAC cells
T1 sequence (Q13324 1-411): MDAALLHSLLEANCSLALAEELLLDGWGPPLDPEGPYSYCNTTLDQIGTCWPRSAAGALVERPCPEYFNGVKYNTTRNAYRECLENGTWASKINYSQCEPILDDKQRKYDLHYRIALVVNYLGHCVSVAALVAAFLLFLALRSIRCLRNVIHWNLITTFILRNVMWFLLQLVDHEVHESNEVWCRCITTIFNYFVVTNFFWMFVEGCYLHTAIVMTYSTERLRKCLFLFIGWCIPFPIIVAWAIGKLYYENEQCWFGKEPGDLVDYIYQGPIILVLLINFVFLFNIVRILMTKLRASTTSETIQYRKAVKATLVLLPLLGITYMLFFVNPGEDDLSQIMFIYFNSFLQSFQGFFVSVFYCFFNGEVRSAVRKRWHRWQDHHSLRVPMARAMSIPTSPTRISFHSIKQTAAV
Nature of the experiment: Activity at human CRF2a receptor, cAMP functional assay in TeloHEAC cells. To be noted: TeloHEAC cells stably expressing human CRF2a receptor, relative to urocortin 2 (100 nM = 100%). It is filed as cell-based. The procedure:
Agonism of compounds for human corticotropin-releasing factor 2a (CRF2a receptor) was determined by a functional assay measuring cAMP modulation upon treatment of TeloHEAC cells stably expressing human CRF2a receptor. Compounds were dissolved at 0.5 mM in 100% DMSO and serially diluted (1:2) in 100% DMSO for 16 dilutions. 20 nL of each dilution was then transferred to 384-well assay plate using an acoustic droplet ejection instrument. 5 μL of compound buffer (1×HBSS; 20 mM HEPES,) were then added to each well. Prior to use, frozen cells were thawed quickly at 37° C. and washed (5 min at 900 rpm) with 20 mL cell buffer (1×HBSS; 20 mM HEPES). Cells were resuspended in cell buffer added with 2 mM IBMX and adjusted to a cell density of […]. 5 μL cells (final dell density: 10000 cells/well) were dispensed in the compound-containing 384-well assay plate and incubated for 30 minutes 37° C. The cAMP level in treated cells was determined using the Cisbio 62AM4PEC kit according to manufacturer's instruction. Finally, plates were incubated for 1 h at room temperature before measuring the fluorescence ratio between 665/620 nm. The percent activity value (E %) was calculated by setting 100 nM of urocortin 2 (UCN2) as 100%. The in vitro potency of the compounds was quantified by determining the concentrations that caused 50% activation of maximal response (EC50) relative to urocortin 2.

Experiment [2] concerns the target T2, CFR1R receptor (Homo sapiens, UniProt P34998).
T2 construct: host or cells: CHO-K1 (clone 2)
T2 sequence (P34998 24-415): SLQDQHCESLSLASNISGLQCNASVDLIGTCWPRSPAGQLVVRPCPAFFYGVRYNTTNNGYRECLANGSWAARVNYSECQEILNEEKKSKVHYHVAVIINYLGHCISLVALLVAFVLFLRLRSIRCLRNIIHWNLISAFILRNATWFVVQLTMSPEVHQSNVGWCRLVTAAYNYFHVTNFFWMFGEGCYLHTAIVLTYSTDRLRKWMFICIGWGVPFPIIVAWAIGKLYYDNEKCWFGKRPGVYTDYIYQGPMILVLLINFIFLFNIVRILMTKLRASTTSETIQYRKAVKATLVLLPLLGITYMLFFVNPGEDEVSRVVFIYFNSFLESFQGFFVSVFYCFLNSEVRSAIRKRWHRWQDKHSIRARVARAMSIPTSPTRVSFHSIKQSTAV
The experiment can be described thus: Activity at anti-target CFR1R receptor, cAMP assay in CRF1R-overexpression CHO-K1 cells. It is filed as cell-based. To be noted: 100% = Sauvagine at 100 nM. Put shortly: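 Grow clone 2 to near confluence at 37° C. under 5% CO2 in F12 (Hams) with 10% FBS and G418, harvest, and freeze in 10% DMSO. Thaw and plate at 4000 cells/well. Then proceed per the TeloHAEC method, normalising to Sauvagine 100 nM as maximum.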

Take `CC[C@H](C)[C@H](NC)C(=O)N[C@H](C(=O)N[C@@H](CC(C)C)C(=O)N[C@@H](CO)C(=O)N[C@@H](CC(C)C)C(=O)N[C@@H](CC(=O)O)C(=O)N[C@@H](C(=O)N1CCC[C@H]1C(=O)N[C@H](C(=O)N[C@@H](CCCCN)C(=O)N[C@@H](CC(C)C)C(=O)N[C@@H](CCCCNC(=O)CC[C@H](NC(=O)CCCCCCCCCCCCCCC(=O)O)C(=O)O)C(=O)N[C@@H](CCC(N)=O)C(=O)N[C@H](C(=O)N[C@@H](CC(C)C)C(=O)N[C@@H](CC(C)C)C(=O)N[C@@H](CCCCN)C(=O)N[C@@H](CCC(N)=O)C(=O)N[C@@H](CCC(=O)O)C(=O)N[C@@H](CCCNC(=N)N)C(=O)N[C@@H](CCC(N)=O)C(=O)N[C@@H](CCCCN)C(=O)N[C@@H](CCCCN)C(=O)N[C@@H](CCC(N)=O)C(=O)N[C@@H](CCCNC(=N)N)C(=O)N[C@@H](CCC(=O)O)C(=O)N[C@@H](CCC(N)=O)C(=O)N[C@@H](C)C(=O)N[C@@H](CCC(=O)O)C(=O)N[C@@H](CCCCN)C(=O)N[C@@H](CC(N)=O)C(=O)N[C@@H](CCCCN)C(=O)N[C@@H](CCC(N)=O)C(=O)N[C@H](C(=O)N[C@@H](CC(C)C)C(=O)N[C@@H](CCC(=O)O)C(=O)N[C@@H](CCC(N)=O)C(=O)N[C@H](C(N)=O)C(C)C)[C@@H](C)CC)[C@@H](C)CC)[C@@H](C)CC)C(C)C)C(C)C` [SEQ ID No. 5, reference compound] (H-[NMeI]VLSLD[dV]PIKLK([γGlu-C16 diacid])QILLKQERQKKQREQAEKNKQILEQV-NH2): in experiment [1], the EC50 was determined as 0.09 nM. For the same compound, in experiment [2], the “Emax (% I)” value was 48 % I.

As to `CCC(=O)N[C@H](C(=O)N[C@@H](CC(C)C)C(=O)N[C@@H](CO)C(=O)N[C@@H](CC(C)C)C(=O)N[C@@H](CC(=O)O)C(=O)N[C@@H](C(=O)N1CCC[C@H]1C(=O)N[C@H](C(=O)N[C@@H](CCCCN)C(=O)N[C@@H](CC(C)C)C(=O)N[C@@H](CCCCNC(=O)CC[C@H](NC(=O)CCCCCCCCCCCCCCC(=O)O)C(=O)O)C(=O)N[C@@H](CCC(N)=O)C(=O)N[C@H](C(=O)N[C@@H](CC(C)C)C(=O)N[C@@H](CC(C)C)C(=O)N[C@@H](CCCCN)C(=O)N[C@@H](CCC(N)=O)C(=O)N[C@@H](CCC(=O)O)C(=O)N[C@@H](CCCNC(=N)N)C(=O)N[C@@H](CCC(N)=O)C(=O)N[C@@H](CCCCN)C(=O)N[C@@H](CCCCN)C(=O)N[C@@H](CCC(N)=O)C(=O)N[C@@H](CCCNC(=N)N)C(=O)N[C@@H](CCC(=O)O)C(=O)N[C@@H](CCC(N)=O)C(=O)N[C@@H](C)C(=O)N[C@@H](CCC(=O)O)C(=O)N[C@@H](CCCCN)C(=O)N[C@@H](CC(N)=O)C(=O)N[C@@H](CCCCN)C(=O)N[C@@H](CCC(N)=O)C(=O)N[C@H](C(=O)N[C@@H](CC(C)C)C(=O)N[C@@H](CCC(=O)O)C(=O)N[C@@H](CCC(N)=O)C(=O)N[C@H](C(N)=O)C(C)C)[C@@H](C)CC)[C@@H](C)CC)[C@@H](C)CC)C(C)C)C(C)C` [compound 6] (Propionyl-VLSLD[dV]PIKLK([γGlu-C16 diacid])QILLKQERQKKQREQAEKNKQILEQV-NH2), a half-maximal effect in experiment [1] (EC50) was put at 0.09 nM. For the same compound, the “Emax (% I)” value in experiment [2] is given as 56 % I.

Compound `CCCC(=O)N[C@H](C(=O)N[C@@H](CC(C)C)C(=O)N[C@@H](CO)C(=O)N[C@@H](CC(C)C)C(=O)N[C@@H](CC(=O)O)C(=O)N[C@@H](C(=O)N1CCC[C@H]1C(=O)N[C@H](C(=O)N[C@@H](CCCCN)C(=O)N[C@@H](CC(C)C)C(=O)N[C@@H](CCCCNC(=O)CC[C@H](NC(=O)CCCCCCCCCCCCCCC(=O)O)C(=O)O)C(=O)N[C@@H](CCC(N)=O)C(=O)N[C@H](C(=O)N[C@@H](CC(C)C)C(=O)N[C@@H](CC(C)C)C(=O)N[C@@H](CCCCN)C(=O)N[C@@H](CCC(N)=O)C(=O)N[C@@H](CCC(=O)O)C(=O)N[C@@H](CCCNC(=N)N)C(=O)N[C@@H](CCC(N)=O)C(=O)N[C@@H](CCCCN)C(=O)N[C@@H](CCCCN)C(=O)N[C@@H](CCC(N)=O)C(=O)N[C@@H](CCCNC(=N)N)C(=O)N[C@@H](CCC(=O)O)C(=O)N[C@@H](CCC(N)=O)C(=O)N[C@@H](C)C(=O)N[C@@H](CCC(=O)O)C(=O)N[C@@H](CCCCN)C(=O)N[C@@H](CC(N)=O)C(=O)N[C@@H](CCCCN)C(=O)N[C@@H](CCC(N)=O)C(=O)N[C@H](C(=O)N[C@@H](CC(C)C)C(=O)N[C@@H](CCC(=O)O)C(=O)N[C@@H](CCC(N)=O)C(=O)N[C@H](C(N)=O)C(C)C)[C@@H](C)CC)[C@@H](C)CC)[C@@H](C)CC)C(C)C)C(C)C` [compound 7] (Butyryl-VLSLD[dV]PIKLK([γGlu-C16 diacid])QILLKQERQKKQREQAEKNKQILEQV-NH2) came in with a concentration giving a half-maximal response (EC50) in experiment [1] of 0.06 nM. The “Emax (% I)” value in experiment [2] amounted to 59 % I.

With `CCCCC(=O)N[C@H](C(=O)N[C@@H](CC(C)C)C(=O)N[C@@H](CO)C(=O)N[C@@H](CC(C)C)C(=O)N[C@@H](CC(=O)O)C(=O)N[C@@H](C(=O)N1CCC[C@H]1C(=O)N[C@H](C(=O)N[C@@H](CCCCN)C(=O)N[C@@H](CC(C)C)C(=O)N[C@@H](CCCCNC(=O)CC[C@H](NC(=O)CCCCCCCCCCCCCCC(=O)O)C(=O)O)C(=O)N[C@@H](CCC(N)=O)C(=O)N[C@H](C(=O)N[C@@H](CC(C)C)C(=O)N[C@@H](CC(C)C)C(=O)N[C@@H](CCCCN)C(=O)N[C@@H](CCC(N)=O)C(=O)N[C@@H](CCC(=O)O)C(=O)N[C@@H](CCCNC(=N)N)C(=O)N[C@@H](CCC(N)=O)C(=O)N[C@@H](CCCCN)C(=O)N[C@@H](CCCCN)C(=O)N[C@@H](CCC(N)=O)C(=O)N[C@@H](CCCNC(=N)N)C(=O)N[C@@H](CCC(=O)O)C(=O)N[C@@H](CCC(N)=O)C(=O)N[C@@H](C)C(=O)N[C@@H](CCC(=O)O)C(=O)N[C@@H](CCCCN)C(=O)N[C@@H](CC(N)=O)C(=O)N[C@@H](CCCCN)C(=O)N[C@@H](CCC(N)=O)C(=O)N[C@H](C(=O)N[C@@H](CC(C)C)C(=O)N[C@@H](CCC(=O)O)C(=O)N[C@@H](CCC(N)=O)C(=O)N[C@H](C(N)=O)C(C)C)[C@@H](C)CC)[C@@H](C)CC)[C@@H](C)CC)C(C)C)C(C)C` [compound 8] (Pentanoyl-VLSLD[dV]PIKLK([γGlu-C16 diacid])QILLKQERQKKQREQAEKNKQILEQV-NH2), in experiment [1], the EC50 amounted to 0.14 nM. Further, in experiment [2], the “Emax (% I)” value came to 50 % I.

Consider `CC[C@H](C)[C@H](NC(=O)[C@H](CCC(N)=O)NC(=O)[C@H](CCCCNC(=O)CC[C@H](NC(=O)CCCCCCCCCCCCCCC(=O)O)C(=O)O)NC(=O)[C@H](CC(C)C)NC(=O)[C@H](CCCCN)NC(=O)[C@@H](NC(=O)[C@@H]1CCCN1C(=O)[C@H](NC(=O)[C@H](CC(=O)O)NC(=O)[C@H](CC(C)C)NC(=O)[C@H](CO)NC(=O)[C@H](CC(C)C)NC(=O)[C@@H](NC(=O)CC(C)C)C(C)C)C(C)C)[C@@H](C)CC)C(=O)N[C@@H](CC(C)C)C(=O)N[C@@H](CC(C)C)C(=O)N[C@@H](CCCCN)C(=O)N[C@@H](CCC(N)=O)C(=O)N[C@@H](CCC(=O)O)C(=O)N[C@@H](CCCNC(=N)N)C(=O)N[C@@H](CCC(N)=O)C(=O)N[C@@H](CCCCN)C(=O)N[C@@H](CCCCN)C(=O)N[C@@H](CCC(N)=O)C(=O)N[C@@H](CCCNC(=N)N)C(=O)N[C@@H](CCC(=O)O)C(=O)N[C@@H](CCC(N)=O)C(=O)N[C@@H](C)C(=O)N[C@@H](CCC(=O)O)C(=O)N[C@@H](CCCCN)C(=O)N[C@@H](CC(N)=O)C(=O)N[C@@H](CCCCN)C(=O)N[C@@H](CCC(N)=O)C(=O)N[C@H](C(=O)N[C@@H](CC(C)C)C(=O)N[C@@H](CCC(=O)O)C(=O)N[C@@H](CCC(N)=O)C(=O)N[C@H](C(N)=O)C(C)C)[C@@H](C)CC` [compound 9] (Isovaleryl-VLSLD[dV]PIKLK([γGlu-C16 diacid])QILLKQERQKKQREQAEKNKQILEQV-NH2), for which the EC50 in experiment [1] stood at 0.16 nM. The “Emax (% I)” value in experiment [2] worked out at 77 % I.
